Experimental data from publication PMC11945486, “TAS1R2/TAS1R3 Single-Nucleotide Polymorphisms Affect Sweet Taste Receptor Activation by Sweeteners: The SWEET Project” (Nutrients, 2025).
No end group written: not given here.

Target: T1, human TAS1R2-I486V/TAS1R3-WT (Homo sapiens, UniProt Q7RTX0+Q8TE23, I486V)
T1 construct: expressed in transfected cells; host or cells: HEK293T-Gα16gust44
T1 sequence (Q8TE23 20-839 I486V): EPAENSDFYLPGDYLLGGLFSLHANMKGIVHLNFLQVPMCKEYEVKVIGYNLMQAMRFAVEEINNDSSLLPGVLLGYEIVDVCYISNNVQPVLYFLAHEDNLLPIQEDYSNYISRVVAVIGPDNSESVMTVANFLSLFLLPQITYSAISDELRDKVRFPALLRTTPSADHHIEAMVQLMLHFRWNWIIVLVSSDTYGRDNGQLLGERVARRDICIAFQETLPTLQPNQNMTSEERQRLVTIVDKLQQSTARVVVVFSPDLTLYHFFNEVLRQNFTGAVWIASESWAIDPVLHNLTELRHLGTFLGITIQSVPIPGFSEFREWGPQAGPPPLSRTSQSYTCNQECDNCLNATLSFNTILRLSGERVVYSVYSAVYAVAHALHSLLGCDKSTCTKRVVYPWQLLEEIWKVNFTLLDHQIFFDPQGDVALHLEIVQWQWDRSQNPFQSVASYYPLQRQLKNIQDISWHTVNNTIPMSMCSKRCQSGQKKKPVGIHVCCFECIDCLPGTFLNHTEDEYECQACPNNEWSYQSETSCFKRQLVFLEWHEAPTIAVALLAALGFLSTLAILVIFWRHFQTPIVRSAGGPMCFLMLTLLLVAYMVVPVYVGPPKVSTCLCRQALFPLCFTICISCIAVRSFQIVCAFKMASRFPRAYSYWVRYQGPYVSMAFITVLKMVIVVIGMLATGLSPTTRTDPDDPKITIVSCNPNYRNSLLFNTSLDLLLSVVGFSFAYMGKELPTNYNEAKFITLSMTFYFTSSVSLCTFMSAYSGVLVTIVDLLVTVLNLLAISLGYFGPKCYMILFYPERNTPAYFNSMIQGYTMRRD
T1 sequence (Q7RTX0 21-852): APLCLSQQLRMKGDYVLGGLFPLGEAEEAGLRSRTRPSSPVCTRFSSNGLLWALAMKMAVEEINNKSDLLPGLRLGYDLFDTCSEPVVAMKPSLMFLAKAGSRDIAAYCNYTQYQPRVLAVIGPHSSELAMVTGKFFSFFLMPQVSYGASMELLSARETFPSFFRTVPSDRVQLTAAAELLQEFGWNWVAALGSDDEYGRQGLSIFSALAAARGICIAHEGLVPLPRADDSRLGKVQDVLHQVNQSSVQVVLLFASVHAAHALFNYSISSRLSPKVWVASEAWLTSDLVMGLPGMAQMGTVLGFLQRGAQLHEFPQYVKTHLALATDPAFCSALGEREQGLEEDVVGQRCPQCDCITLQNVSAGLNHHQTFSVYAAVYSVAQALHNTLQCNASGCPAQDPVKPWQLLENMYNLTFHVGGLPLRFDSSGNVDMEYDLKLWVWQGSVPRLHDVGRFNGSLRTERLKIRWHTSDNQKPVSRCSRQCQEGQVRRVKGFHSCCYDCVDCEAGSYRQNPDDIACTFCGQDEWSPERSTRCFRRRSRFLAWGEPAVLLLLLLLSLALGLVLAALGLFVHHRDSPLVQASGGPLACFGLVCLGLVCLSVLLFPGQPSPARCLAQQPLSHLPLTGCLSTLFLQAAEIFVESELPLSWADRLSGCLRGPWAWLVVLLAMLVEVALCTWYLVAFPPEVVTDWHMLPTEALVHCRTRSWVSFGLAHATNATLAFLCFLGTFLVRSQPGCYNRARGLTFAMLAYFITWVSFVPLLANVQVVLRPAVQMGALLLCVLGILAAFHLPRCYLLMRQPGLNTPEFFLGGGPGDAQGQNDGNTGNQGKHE
Assay: Calcium mobilisation assay, TAS1R2 variant I486V with TAS1R3-WT
Type: cell-based
Conditions: for Max ΔF/F0: maximal signal amplitude
Description: The coding sequences for TAS1R2 and TAS1R3 were commercially synthesised, and the human codon was optimised for expression in human cells. The coding sequences of human TAS1R2 and TAS1R3 were subcloned and inserted into the mammalian expression vectors pcDNA6/myc-HisA and pcDNA4/myc-HisA (Invitrogen; Thermo Fisher Scientific; Illkirch, France) between the EcoRI and NotI restriction sites, generating the plasmids pcDNA6-TAS1R2 and pcDNA4-TAS1R3, respectively. To increase protein expression in mammalian cells, an upstream start codon was used, which was a sequence called MAX, corresponding to the QBI SP163 element also described in pcDNA4-HisMax (Invitrogen; Thermo Fisher Scientific; Illkirch, France). To measure the expression level of the receptor by immunohistochemistry, we used the FLAG sequence ([…]) in the C-terminal position, which encodes the FLAG tag epitope. SNP variants of TAS1R2 and TAS1R3 were constructed based on […], respectively, using site-directed mutagenesis (Genewiz; Leipzig, Germany).
The HEK293T cells were kindly provided by Jay P. Slack (Givaudan Flavors Corporation; Cincinnati, OH, USA). HEK293T cells stably transfected with Gα16gust44 [43, 67] were seeded in poly-D-lysine-coated clear-bottom black 96-well plates (0.35 × 10^5 cells/well) in high-glucose DMEM supplemented with 2 mM GlutaMAX, 10% dialysed foetal bovine serum with penicillin/streptomycin and G418 (400 μg/mL) at 37 °C and 6.3% CO2 in a humidified atmosphere as previously reported. […] As a negative control, HEK293T cells were mock-transfected with the empty expression vector. After a further 24 h of incubation, the HEK293T cells were washed with C1 buffer (130 mM NaCl, 5 mM KCl, 10 mM HEPES pH 7.4 and 2 mM CaCl2). The 96-well plates containing the cells were then stimulated with sweet-tasting compounds. […] Different concentration ranges were tested depending on the sweet compound injected. The Ca^2+ changes were expressed as fractional changes in fluorescent light intensity: ΔF/F = (F − F0)/F0, where F was the fluorescent light intensity at each point, and F0 was the value of emitted fluorescent light prior to stimulus application. To calculate dose–response relationships, the changes in fluorescence upon stimulus application were averaged, mock-subtracted and baseline-corrected. The dose–response data obtained were adjusted using a 4-parameter logistic equation. The half-maximal effective concentrations (EC50 values) and maximal signal amplitudes were calculated using SigmaPlot software (version 15.0) (Systat Software; San Jose, CA, USA).
For in vitro calcium mobilisation assay performed on hTAS1R2-SNPs, hTAS1R3-SNPs and mTAS1R3-I60T, 6 to 7 concentrations were tested for each sweet compound, plus buffer alone. All concentration–receptor combinations were measured in duplicate, and each experiment was repeated at least 4 times (8 wells/concentration). Results were expressed for each concentration as ΔF/F mean ± SEM and represented as dose–response curves.

CC1=CC(=O)NS(=O)(=O)O1 [Acesulfame K, acesulfame K]
EC50: 778 ± 108 µM
R1 = Variant EC50/WT EC50: 1.1
Max ΔF/F0: 0.46 ± 0.03

O=S(=O)(O)NC1CCCCC1 [Cyclamate, cyclamate]
EC50: 1880 ± 36 µM

C[C@H](CC[C@@H](O[C@@H]1O[C@H](CO[C@@H]2O[C@H](CO)[C@@H](O)[C@H](O)[C@H]2O)[C@@H](O)[C@H](O)[C@H]1O[C@@H]1O[C@H](CO)[C@@H](O)[C@H](O)[C@H]1O)C(C)(C)O)[C@H]1CC[C@@]2(C)[C@@H]3CC=C4[C@@H](CC[C@H](O[C@@H]5O[C@H](CO[C@@H]6O[C@H](CO)[C@@H](O)[C@H](O)[C@H]6O)[C@@H](O)[C@H](O)[C@H]5O)C4(C)C)[C@]3(C)[C@H](O)C[C@]12C [Mogroside V, mogroside V]
EC50: 20.1 ± 0.9 µM
R1 = Variant EC50/WT EC50: 1.2
Max ΔF/F0: 1.39 ± 0.02

COc1ccc(CCC(=O)c2c(O)cc(O[C@@H]3O[C@H](CO)[C@@H](O)[C@H](O)[C@H]3O[C@@H]3O[C@@H](C)[C@H](O)[C@@H](O)[C@H]3O)cc2O)cc1O [NHDC, neohesperidin dihydrochalcone]
EC50: 92.6 ± 5.2 µM
R1 = Variant EC50/WT EC50: 1.2
Max ΔF/F0: 0.92 ± 0.02

COC(=O)[C@H](Cc1ccccc1)NC(=O)[C@H](CC(=O)O)NCCC(C)(C)C [Neotame]
EC50: 0.71 ± 0.06 µM
R1 = Variant EC50/WT EC50: 0.8
Max ΔF/F0: 0.61 ± 0.01

C=C(C)[C@@H]1CC=C(/C=N/O)CC1 [Perillartine, perillartine]
EC50: 17.7 ± 1.2 µM
R1 = Variant EC50/WT EC50: 1.0
Max ΔF/F0: 1.49 ± 0.04

C=C1C[C@@]23CC[C@H]4[C@@](C)(CCC[C@@]4(C)C(=O)O[C@@H]4O[C@H](CO)[C@@H](O)[C@H](O[C@@H]5O[C@H](CO)[C@@H](O)[C@H](O)[C@H]5O)[C@H]4O[C@@H]4O[C@H](CO)[C@@H](O)[C@H](O)[C@H]4O)[C@@H]2CC[C@]1(O[C@@H]1O[C@H](CO)[C@@H](O)[C@H](O[C@@H]2O[C@H](CO)[C@@H](O)[C@H](O)[C@H]2O)[C@H]1O[C@@H]1O[C@H](CO)[C@@H](O)[C@H](O)[C@H]1O)C3 [Rebaudioside M, rebaudioside M]
EC50: 17.6 ± 0.6 µM
R1 = Variant EC50/WT EC50: 1.0
Max ΔF/F0: 1.20 ± 0.01

OC[C@H]1O[C@H](O[C@]2(CCl)O[C@H](CCl)[C@@H](O)[C@@H]2O)[C@H](O)[C@@H](O)[C@H]1Cl [Sucralose]
EC50: 54 ± 5 µM
R1 = Variant EC50/WT EC50: 0.6
Max ΔF/F0: 0.69 ± 0.02

brazzein (QDKCKKVYENYPVSKCQLANQCNYDCKLDKHARSGECFYDEKRNLQCICDYCEY; ends and bridges not checked; cysteine pairing not given here; UniProt P56552 1-54, looked up) [sweet-tasting protein obtained by recombinant production using the yeast Pichia pastoris]
R1 = Variant EC50/WT EC50: 1.1
Max ΔF/F0: 1.19 ± 0.03

thaumatin
R1 = Variant EC50/WT EC50: 1.4
Max ΔF/F0: 1.21 ± 0.02

B1: thaumatin (protein)
chain: ATFEIVNRCSYTVWAAASKGDAALDAGGRQLNSGESWTINVEPGTKGGKIWARTDCYFDDSGSGICKTGDCGGLLRCKRFGRPPTTLAEFSLNQYGKDYIDISNIKGFNVPMDFSPTTRGCRGVRCAADIVGQCPAKLKAPGGGCNDACTVFQTSEYCCTTGKCGPTEYSRFFKRLCPDAFSYVLDKPTTVTCPGSSNYRVTFCPTA
modifications: Eight disulfides
notes: sweet-tasting plant protein, E957
EC50: 10.5 ± 0.3 µM
